The source of these data is patent US11371055B2, “Herbicide resistance genes” (CORTEVA AGRISCIENCE LLC, priority 2005, dated 2022).

The subject of test [1] is AAD-12 x AAD-1 F1 cross tobacco. As to the kind of experiment: Auxinic herbicide cross tolerance of stacked tobacco, F1 cross. As to conditions: AAD-12 (v1) x AAD (v3) F1; 280 g ae/ha. The class given is in vivo, Nicotiana tabacum. The procedure: (§1) Homozygous AAD-12 (v1) (pDAS1580) and AAD-1 (v3) (pDAB721) plants (see PCT/US2005/014737 for the latter) were both reciprocally crossed and F1 seed was collected. The F1 seed from two reciprocal crosses of each gene were stratified and treated 4 reps of each cross were treated under the same spray regimen as used for the other testing with one of the following treatments: 70, 140, 280 g ac/ha fluroxypyr (selective for the AAD-12 (v1) gene); 280, 560, 1120 g ae/ha R-dichloroprop (selective for the AAD-1 (v3) gene); or 560, 1120, 2240 g ae/ha 2,4-D DMA (to confirm 2,4-D tolerance). Homozygous T2 plants of each gene were also planted for use as controls. Plants were graded at 3 and 14 DAT.

Test [2] relates to AAD-1 (v3) (pDAB721) T2 tobacco plants. As to the kind of experiment: Auxinic herbicide cross tolerance of stacked tobacco, AAD-1 T2. The class given is in vivo, Nicotiana tabacum. As to conditions: 280 g ae/ha. The procedure:
as §1

Test [3] deals with AAD-12 (v1) (pDAS1580) T2 tobacco plants. Briefly: Auxinic herbicide cross tolerance of stacked tobacco, AAD-12 T2. It counts as in vivo, Nicotiana tabacum. The following applies: 280 g ae/ha. How it is done:
as §1

The next test concerns wildtype tobacco. As to the kind of experiment: Auxinic herbicide cross tolerance of stacked tobacco, wildtype. The class given is in vivo, Nicotiana tabacum. As to conditions: KY160 wildtype control; 280 g ae/ha. The procedure:
as §1

A further test addresses T1, AAD-12 (v2) (Delftia acidovorans, UniProt P83309).
T1 construct: made in house; host or cells: Pseudomonas fluorescens strain MB324 (construct pDAB739)
Briefly: Colorimetric phenol detection assay of AAD-12 activity. As to conditions: for activity of AAD-12 (v2) on substrate (absorbance at 510 nm, FIG. 3): 4.4 μg AAD-12 (v2), 5 minutes. It counts as biochemical. The procedure:
Enzyme activity was measured by colorimetric detection of the product phenol using a protocol modified from that of Fukumori and Hausinger (1993) (J. Biol. Chem. 268: 24311-24317) to enable deployment in a 96-well microplate format. The colorimetric assay has been described for use in measuring the activity of dioxygenases cleaving 2,4-D and dichlorprop to release the product 2,4-dichlorophenol. The color yield from several phenols was compared to that of 2,4-dichlorophenol using the detection method previously described to ascertain which phenol products could be readily detected. […] Pyridinols derived from fluroxypyr and triclopyr produced no significant color. The color yield of 2,4-dichlorophenol was linear and proportional to the concentration of phenol in the assay up to ˜500 μM.
Assays were initiated by addition of the aryloxyalkanoate substrate, enzyme or α-ketoglutarate at time zero. After 5 minutes of incubation at 25° C., the reaction was terminated by addition of 30 μl of a 1:1:1 mix of 50 mM Na EDTA; pH 10 buffer (3.09 g boric acid+3.73 g KCl+44 ml 1 N KOH) and 0.2% 4-aminoantipyrine. Then 10 μl 0.8% potassium ferricyanide was added and after 5 or 10 min, the absorbance at 510 nm was recorded in a spectrophotometric microplate reader. Blanks contained all reagents except for enzyme to account for the occasional slight contamination of some of the substrates by small amounts of phenols.
The results are shown in FIG. 3, which illustrates activity of AAD-12 (v2) on 2,4-D and enantiomers of dichlorprop. 4.4 μg AAD-12 (v2) was incubated with 0.5 mM substrate (1 mM for (R,S)-dichlorprop) and the reaction initiated by addition of α-ketoglutarate. After 5 minutes, the reaction was quenched, and the absorbance at 510 nm determined after addition of colorimetric detection reagents. The background value without enzyme was subtracted.

Test [4] relates to Pat/Cry1f-Control Arabidopsis. As to the kind of experiment: Foliar-applied auxinic herbicides on transformed control Arabidopsis. It counts as in vivo, Arabidopsis thaliana. The following applies: for Ave % Injury 14DAT: Inactive DCP metabolite. The procedure:
(§2) The ability of AAD-12 (v1) to provide resistance to other aryloxyalkanoate auxin herbicides in transgenic Arabidopsis was determined by foliar application of various substrates. T2 generation Arabidopsis seed was stratified, and sown into selection trays much like that of Arabidopsis (Example 6.4). A transformed-control line containing PAT and the insect resistance gene Cry1F was planted in a similar manner. Seedlings were transferred to individual 3-inch pots in the greenhouse. All plants were sprayed with the use of a track sprayer set at 187 L/ha. The plants were sprayed with a range of pyridyloxyacetate herbicides: 280-2240 g ae/ha triclopyr (Garlon 3A, Dow AgroSciences) and 280-2240 g ae/ha fluroxypyr (Starane, Dow AgroSciences); and the 2,4-D metabolite resulting from AAD-12 activity, 2,4-dichlorophenol (DCP, Sigma) (at a molar equivalent to 280-2240 g ac/ha of 2,4-D, technical grade DCP was used). All applications were formulated in water. Each treatment was replicated 3-4 times. Plants were evaluated at 3 and 14 days after treatment.

The test system of test [5] is Segregating T2 AAD-12 (v1) plants (pDAB724.01.1.20). As to the kind of experiment: Foliar-applied auxinic herbicides on T2 Arabidopsis. It counts as in vivo, Arabidopsis thaliana. The following applies: Inactive DCP metabolite. The procedure: as §2
Where [6] appears, read: 280 g ae/ha (molar equivalent of 2,4-D) foliar.
The mark [7] stands for this setting: 560 g ae/ha (molar equivalent of 2,4-D) foliar.
The mark [8] stands for this setting: 1120 g ae/ha (molar equivalent of 2,4-D) foliar.
Where [9] appears, read: 2240 g ae/ha (molar equivalent of 2,4-D) foliar.

T1 sequence (P83309 whole entry, looked up, natural form): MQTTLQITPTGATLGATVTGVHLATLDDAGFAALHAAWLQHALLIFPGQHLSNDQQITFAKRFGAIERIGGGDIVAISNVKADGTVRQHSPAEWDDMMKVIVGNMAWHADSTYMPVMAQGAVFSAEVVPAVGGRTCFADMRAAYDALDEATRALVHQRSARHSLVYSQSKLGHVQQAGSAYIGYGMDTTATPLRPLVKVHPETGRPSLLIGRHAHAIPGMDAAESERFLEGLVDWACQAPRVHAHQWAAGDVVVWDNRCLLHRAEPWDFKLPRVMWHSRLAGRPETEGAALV

Take `Nc1c(Cl)c(F)nc(OCC(=O)O)c1Cl` [fluroxypy]: the “Average % injury 14 DAT” value in test [1] came to 3%; in test [2], 75%; in test [3], 3%; with wildtype tobacco, 75%.

Take `CC(Oc1ccc(Cl)cc1Cl)C(=O)O` (racemic) [(R,S)-dichlorprop]: the “activity of AAD-12 (v2) on substrate (absorbance at 510 nm, FIG. 3)” value on AAD-12 (v2) (1 mM substrate) is “excellent activity”. At AAD-12 (v2) (Phenol detection), the “Substrate inhibition at 2 mM” value amounted to 55% and the “kcat, min^−1 (±SE)” value is recorded as 63.4 (±0.5) min^−1. Besides, on AAD-12 (v2) (Phenol detection, for (R,S)-dichlorprop calculated assuming 50% of the racemic mixture was available as a substrate, read-out: Km, μM (±SE)), the Km is 122 µM.

On to `C[C@H](Oc1ccc(Cl)cc1Cl)C(=O)O` [(S)-dichlorprop], for which, at AAD-12 (v2) (0.5 mM substrate), the “activity of AAD-12 (v2) on substrate (absorbance at 510 nm, FIG. 3)” value is “excellent activity”.

Take `Oc1ccc(Cl)cc1Cl` [2,4-DCP, 2,4-dichlorophenol]: the “Ave % Injury 14DAT” value in test [4] (setting [6]), in test [4] (setting [7]), in test [4] (setting [8]), in test [4] (setting [9]), in test [5] (setting [6]) and in test [5] (setting [7]) was 0% each time. Also, the “Ave % Injury 14DAT” value in test [5] (setting [8]) and in test [5] (setting [9]) was 0% throughout. Besides, the “effect on plants after foliar application” value in test [4] (molar equivalent to 280-2240 g ae/ha of 2,4-D) was “no effect”.
